{
  "source": "patent EP0974593A1",
  "about": "“Artemisinin derivatives as antiparasitic agents” (The Hong Kong University of Science & Technology, priority 1998, dated 2000)",
  "key": {"[1]": {"tested_on": "Plasmodium Falciparum D6 strain (chloroquine sensitive)", "test": "In vitro activity against Plasmodium falciparum, 3H-hypoxanthine incorporation assay, D6 strain", "format": "cell-based", "conditions": "D6, 66 h; for IC50 / IC90: Plasmodium falciparum; for IC50: read-out: In vitro activity: IC50; for IC90: read-out: In vitro activity: IC90", "text": "(§1) (a) InVitro Activity against Plasmodium Falciparum\n(§2) Two parasite strains - W2 resistant to chloroquine, and D6 sensitive to chloroquine but […] were used. In Table I below, the best compounds should show no cross resistance between the two strains.\n(§3) The assay relies on incorporation of radiolabelled hypoxanthine by the parasite and inhibition of incorporation is attributed to activity of known or candidate antimalarial drugs. For each assay, proven antimalarials such as chloroquine, mefloquine, quinine, artemisinin and pyrimethamine were used as controls. The incubation period was 66 hours, and the starting parasitemia was 0.2% with 1% hematocrit. The medium was an RPMI-1640 culture with no folate or p-aminobenzoic acid. Albumax rather than 10% normal heat inactivated human plasma was used as, with Albumax, less protein binding is observed, and compounds elicit slightly higher activities in this model. If a compound was submitted with no prior knowledge of activity, it was dissolved directly in dimethyl sulphoxide (DMSO), and diluted 400 fold with complete culture medium. […]. These dilutions were performed automatically by a Biomek 1000 Liquid Handling System in 96-well microtiter plates. The diluted drugs were then transferred to test plates, 200 µL of parasitized erythrocytes were added, and incubated at 37°C in a controlled environment of 5% CO2, 5% O2 and 90% N2. After […], 25 µL of ^3H-hypoxanthine was added, and the plates incubated for an additional 24 hours. After 66 hours, the plates were frozen at -70°C to lyse the red cells, and then thawed and harvested onto glass fiber filter mats in a 96-well harvester. The filter mats were then counted in a scintillation counter. For each drug, the concentration response profile was determined and 50% and 90% inhibitory concentrations (IC50, IC90 […]) were determined by a non-linear logistic dose response analysis program.\n(§4) A prescreen format can be used wherein a 3-dilution assay may be used to determine activity at high medium or low concentrations. […]. These were performed in duplicate on a 96-well format plate with 14 test compounds and one known (standard) compound per plate. The system was automated with a Biomek diluter for mixing and diluting the drugs, and adding drugs and parasites to a test plate.\n(§5) In the prescreen format, if the ANALYSIS FIELD (AF) has a \"<\", then the compound was \"very active\" and the IC values are most likely to be below the last dilution value (in nanograms/ml), which is listed next to AF. In most cases, these compounds were run again at lower starting concentration to determine the true IC value. If the AF has a \">\", then the IC value is greater than the prescreen dilution value; thus \"AF>250\" means that the IC value is greater than 250 ng ml^-1 and no further screening is carried out. In such cases, values of 0.00 are entered for IC values."}, "[2]": {"tested_on": "Plasmodium Falciparum W2 strain (chloroquine resistant)", "test": "In vitro activity against Plasmodium falciparum, 3H-hypoxanthine incorporation assay, W2 strain", "format": "cell-based", "conditions": "W2, 66 h; for IC50 / IC90: Plasmodium falciparum", "text": "as §1, §2, §3, §4, §5"}, "[3]": {"conditions": "D6 strain (chloroquine sensitive, resistant to mefloquine), 66 hours incubation, Albumax medium"}, "[4]": {"conditions": "read-out: In vitro activity: IC50, W2 strain (chloroquine resistant), 66 hours incubation, Albumax medium"}, "[5]": {"conditions": "read-out: In vitro activity: IC90, W2 strain (chloroquine resistant), 66 hours incubation, Albumax medium"}},
  "note": "Read-outs that look alike come from different tables or passages of the source.",
  "data": [
    {"compound": "C[C@@H]1CC[C@H]2[C@@H](C)C(=O)N(Cc3ccccc3)[C@@H]3O[C@@]4(C)CC[C@@H]1[C@@]23OO4", "note": "[Example 6]", "values": [
      {"measurement": "IC50", "setting": "[1]; [3]", "value": 3.62, "unit": "ng/mL"},
      {"measurement": "IC90", "setting": "[1]; [3]", "value": 6.68, "unit": "ng/mL"},
      {"measurement": "IC50", "setting": "[2]; [4]", "value": 3.8, "unit": "ng/mL"},
      {"measurement": "IC90", "setting": "[2]; [5]", "value": 4.68, "unit": "ng/mL"}
    ]},
    {"compound": "C[C@@H]1CC[C@H]2[C@@H](C)C(=O)N(Cc3ccc(F)cc3)[C@@H]3O[C@@]4(C)CC[C@@H]1[C@@]23OO4", "note": "[Example 4]", "values": [
      {"measurement": "In vitro activity: (IC10)", "setting": "[1]", "value": 1.13, "unit": "ng/mL"},
      {"measurement": "In vitro activity: (IC10)", "setting": "[2]", "value": 0.31, "unit": "ng/mL"}
    ]},
    {"compound": "C[C@@H]1CC[C@H]2[C@@H](C)C(=O)N(Cc3cccc(F)c3)[C@@H]3O[C@@]4(C)CC[C@@H]1[C@@]23OO4", "note": "[Example 5]", "values": [
      {"measurement": "IC50", "setting": "[1]; [3]", "value": 0.79, "unit": "ng/mL"},
      {"measurement": "IC90", "setting": "[1]; [3]", "value": 1.26, "unit": "ng/mL"},
      {"measurement": "IC50", "setting": "[2]; [4]", "value": 0.58, "unit": "ng/mL"},
      {"measurement": "IC90", "setting": "[2]; [5]", "value": 0.95, "unit": "ng/mL"}
    ]},
    {"compound": "C[C@@H]1CC[C@H]2[C@@H](C)C(=O)N(Cc3ccccc3F)[C@@H]3O[C@@]4(C)CC[C@@H]1[C@@]23OO4", "note": "[Example 2, 11-aza-N-(2-fluorobenzyl)artemisinin]", "values": [
      {"measurement": "IC50", "setting": "[1]; [3]", "value": 0.64, "unit": "ng/mL"},
      {"measurement": "IC90", "setting": "[1]; [3]", "value": 0.99, "unit": "ng/mL"},
      {"measurement": "IC50", "setting": "[2]; [4]", "value": 0.775, "unit": "ng/mL"},
      {"measurement": "IC90", "setting": "[2]; [5]", "value": 0.975, "unit": "ng/mL"}
    ]},
    {"compound": "C[C@@H]1CC[C@H]2[C@@H](C)C(=O)N[C@@H]3O[C@@]4(C)CC[C@@H]1[C@]32OO4", "note": "[Example 1, 11-azaartemisinin]", "values": [
      {"measurement": "IC50", "setting": "[1]", "value": 2.6, "unit": "ng/mL"},
      {"measurement": "IC90", "setting": "[1]", "value": 3.6, "unit": "ng/mL"},
      {"measurement": "IC50", "setting": "[2]; read-out: In vitro activity: IC50", "value": 1.73, "unit": "ng/mL"},
      {"measurement": "IC90", "setting": "[2]; read-out: In vitro activity: IC90", "value": 2.24, "unit": "ng/mL"}
    ]}
  ]
}
